In patent publication US7683061B2, “Triazine dimers for the treatment of autoimmune diseases” (ProMetic BioSciences Inc., priority 2003, dated 2010):
Where two headings read alike, the source gives them in different places.

What was measured:
[1] = biological target: T1, Fc portion of human IgG (binding of protein A to human IgG); assay: Competitive protein A binding ELISA
T1 construct: fused on or other part: Horseradish peroxidase chemically conjugated to the IgG (HRP-IgG)
Protocol: As described above, this assay evaluates the ability of the exemplified compounds to mimic protein A. Such compounds can bind to the Fc portion of human IgG as ascertained by the inhibition of binding of protein A to human IgG. The competitive protein A binding ELISA assay was performed on a 96-well plate Maxisorp surface to enhance the binding of protein A to the bottom of the plate. The wells were coated with 100 μL of protein A (0.8 μg) and incubated overnight at 4° C. After incubation, unbound protein A was removed by three washes with phosphate buffer saline (PBS). The plate was then incubated with 100 μL/well of a 2% solution of bovine serum albumin (BSA) for 1 h at 37° C. to block non specific protein binding. After incubation, the plate was washed to times with PBS. 50 μL of compound or protein A, diluted in PBS or PBS-20% DMSO at appropriate concentration, were added to the wells followed by addition of 50 μL of peroxidase-conjugated human IgG (HRP-IgG). After 1 h incubation at 37° C., the plate was washed free times with PBS to remove unbound HRP-IgG. Bound HRP-IgG was detected by incubation with 100 μL of 2,2′-Azino-di[3-ethylbenzothiazoline sulfonate]diammonium salt crystals (ABTS) solution for 20 min in the dark at room temperature. The plate was then read at 405 nm on a EL 800, universal Microplate reader (Bio-Tek). Data was analyzed in Microsoft Excel and the concentration of compound which inhibits 50% binding of protein A (IC50) was calculated using Prism software.
Table 1 represents the IC50 of compounds tested in the competitive protein A binding ELISA assay, which consists of a side-by-side analysis in PBS and PBS-20% DMSO. DMSO was used to increase the solubility of some of the compounds.

[2] = test system: TNFα production, J774A-1 cells; assay: LPS-induced TNFα production in J774A-1 cells (ELISA); type: cell-based; conditions: Mus musculus, J774.A1, 24 h, read-out: IC50 (μM), inhibition of TNFα released by LPS induction
Protocol: Effect of compounds on TNFα production was measured by ELISA using J774-1 cells stimulated by LPS. J774-1 cells were cultured in the presence or absence of LPS and compound. Cells were cultured at 37° C. for 24 h and thereafter the supernatants were collected for the determination of the concentration of TNFα by ELISA as recommended by the manufacturer (BD Biosciences). Data was analyzed in Microsoft Excel and the concentration of compound which inhibits 50% of TNFα production (IC50) was calculated using Prism software.

[3] = test system: TNFα-induced apoptosis, WEHI-13VAR cells; assay: TNFα induced apoptosis in WEHI-13VAR cells (MTT); type: cell-based, murine; conditions: Mus musculus; for inhibition at 10 µM: 1 × 10^−5M; for inhibition at 20 µM: 2 × 10^−5M; for inhibition at 40 µM: 4 × 10^−5M; for inhibition at 5 µM: 5 × 10^−6M
Protocol: Effect of compounds on TNFα-induced apoptosis was measured by a standard biological assay using WEHI-13VAR cells. These cells undergo apoptosis when they are incubated in the presence of TNFα and actinomycin D. 2×10^4 WEHI-13VAR cells were incubated in RPMI supplemented with 1% sodium pyruvate and 10% FBS, overnight at 37° C. for cell adherence. The cells were then cultured in the presence of 1 μg/mL of actinomycin D (to inhibit protein synthesis) and 0.04 nM TNFα with or without compounds at 37° C. After 16-24 h, 50 μL of a solution of 2 mg/mL of MTT was added to each well and the plate was then incubated for 4 h at 37° C. Only viable cells metabolize MTT to form formazan salt, which is detectable by the measurement of absorbance at 570 nm. After the incubation, the plate was inverted to remove medium and dead cells. 150 μL DMSO was added to each well to stop the reaction and solubilize the formazan salt. Optical density was read on a EL 800, universal Microplate reader (Bio-Tek). A decrease in the optical density is direct evidence of cell apoptosis induced by TNFα. Compounds were also compared to the activity of an anti-TNFα neutralizing antibody.

[4] = Table 1, PBS-20% DMSO, read-out: IC50 (μM): Assay in PBS-20% DMSO
[5] = Table 1, PBS, read-out: IC50 (μM): Assay in PBS
[6] = Table 2, PBS-20% DMSO, n = 5 or 6, read-out: IC50 (n = 5 or 6) PBS-20% DMSO
[7] = Table 2, PBS, n = 5 or 6, read-out: IC50 (n = 5 or 6) PBS

Row | SMILES | IC50 [1, 4] | IC50 [1, 5] | also measured
1 | Nc1cccc(Nc2nc(N)nc(Nc3cccc(Nc4nc(NCCO)nc(Nc5cccc(N)c5)n4)c3)n2)c1 [Compound 46] | 0.8 µM | 0.2 µM | –
2 | Nc1ccc(CCNc2nc(Nc3ccccc3)nc(Nc3cccc(CNc4nc(NCCO)nc(Nc5ccccc5)n4)c3)n2)cc1 [Compound 35] | 1 µM | 23 µM | –
3 | Cc1ccc(Nc2nc(NCCc3ccc(N)cc3)nc(Nc3ccccc3)n2)cc1CNc1nc(NCCO)nc(Nc2ccccc2)n1 [Compound 34] | 1 µM | 23 µM | –
4 | COC(=O)[C@H](Cc1ccc(O)cc1)Nc1nc(NCCNc2nc(NCCc3cc4ccccc4[nH]3)nc(N[C@@H](Cc3ccc(O)cc3)C(=O)OC)n2)nc(NCCc2cc3ccccc3[nH]2)n1 [Compound 8] | 28 µM | – | –
5 | Nc1cccc(Nc2nc(NCCO)nc(N3CCN(c4nc(Nc5cccc(N)c5)nc(Nc5cccc(N)c5)n4)CC3)n2)c1 [Compound 44] | 0.04 µM | 0.09 µM | –
6 | Oc1ccc(CCNc2nc(Nc3ccccc3)nc(Nc3ccc(CNc4nc(NCCc5cnc[nH]5)nc(Nc5ccccc5)n4)cc3)n2)cc1 [Compound 27] | 28 µM | – | –
7 | Nc1cccc(Nc2nc(Nc3cccc(Nc4nc(Nc5cccc(N)c5)nc(NC(CO)CO)n4)c3)nc(NC(CO)CO)n2)c1 [Compound 50] | 1 µM | 0.4 µM | –
8 | NCCNc1nc(NCc2cccc(CNc3nc(NCCc4ccc(O)cc4)nc(Nc4ccccc4)n3)c2)nc(Nc2ccccc2)n1 [Compound 40] | – | – | IC50 [2]: 87.2 µM
9 | Nc1ccc(CCNc2nc(NCC3CCN(c4nc(NCCc5ccc(N)cc5)nc(Nc5ccccc5)n4)CC3)nc(Nc3ccccc3)n2)cc1 [Compound 32] | 2 µM | 33 µM | –
10 | COC(=O)c1ccccc1Nc1nc(NCCNc2nc(NCCc3ccc(O)cc3)nc(Nc3ccccc3C(=O)OC)n2)nc(NCCc2ccc(O)cc2)n1 [Compound 2] | – | – | inhibition at 10 µM [3]: 43.7%; inhibition at 20 µM [3]: 48.4%; inhibition at 40 µM [3]: 48.3%; inhibition at 5 µM [3]: 37.3%
11 | Oc1ccc(CCNc2nc(NCCc3ccc(Nc4nc(Nc5ccccc5)nc(N5CCNCC5)n4)cc3)nc(Nc3ccccc3)n2)cc1 [Compound 18] | 43 µM | 26 µM | IC50 [2]: 10.2 µM
12 | OCCNc1nc(NCC2CCN(c3nc(NCCO)nc(Nc4ccccc4)n3)CC2)nc(Nc2ccccc2)n1 [Compound 26] | – | – | inhibition at 10 µM [3]: 27.3%; inhibition at 20 µM [3]: 38%; inhibition at 40 µM [3]: -11.5%; inhibition at 5 µM [3]: 9.7%
13 | Nc1ccc(CCNc2nc(Nc3ccccc3)nc(Nc3ccc(CCNc4nc(NCCO)nc(Nc5ccccc5)n4)cc3)n2)cc1 [Compound 17] | 12 µM | 53 µM | IC50 [2]: 57.1 µM
14 | Nc1cccc(Nc2nc(NCCO)nc(Nc3ccc(Nc4nc(NCCO)nc(Nc5cccc(N)c5)n4)cc3)n2)c1 [Compound 47] | 0.2 µM | 0.2 µM | –
15 | COc1ccccc1Nc1nc(NCCCCN)nc(NCCc2ccc(Oc3nc(NCCc4ccc(O)cc4)nc(Nc4ccccc4)n3)cc2)n1 [Compound 23] | – | – | IC50 [2]: 16.5 µM
16 | Nc1ccc(CCNc2nc(Nc3ccccc3)nc(N3CCN(c4nc(NCCc5ccc(N)cc5)nc(Nc5ccccc5)n4)CC3)n2)cc1 [Compound 36] | 16 µM | – | –
17 | Nc1cccc(Nc2nc(N)nc(NCc3ccc(CNc4nc(N)nc(Nc5cccc(N)c5)n4)cc3)n2)c1 [Compound 41] | 0.02 µM | 0.03 µM | –
18 | Nc1ccc(CNc2nc(NCc3ccc(CNc4nc(NCc5ccc(N)cc5)nc(Nc5cccc(N)c5)n4)cc3)nc(Nc3cccc(N)c3)n2)cc1 [Compound 48] | 0.05 µM | 0.2 µM | –
19 | Nc1ccc(CCNc2nc(NCCCCCCNc3nc(NCCc4ccc(N)cc4)nc(Nc4cccc(N)c4)n3)nc(Nc3cccc(N)c3)n2)cc1 [Compound 31] | 0.12 µM | 0.99 µM | –

Row | SMILES | IC50 [1, 4] | IC50 [1, 5] | also measured
20 | COc1ccccc1Nc1nc(NCCN)nc(NCCc2ccc(Nc3nc(NCCc4ccc(O)cc4)nc(Nc4ccccc4)n3)cc2)n1 [Compound 22] | – | – | IC50 [2]: 62.1 µM
21 | Nc1cccc(CNc2nc(Nc3ccc(CNc4nc(N)nc(Nc5cccc(N)c5)n4)cc3)nc(Nc3cccc(N)c3)n2)c1 [Compound 45] | 0.08 µM | 0.1 µM | inhibition at 10 µM [3]: 2.9%; inhibition at 20 µM [3]: 4.1%; inhibition at 40 µM [3]: 32.9%; inhibition at 5 µM [3]: -0.3%
22 | Oc1ccc(CCNc2nc(Nc3ccccc3)nc(Nc3ccc(Nc4nc(NCCc5ccc(O)cc5)nc(Nc5ccccc5)n4)cc3)n2)cc1 [Compound 28] | 35 µM | – | IC50 [2]: 28.8 µM
23 | Nc1ccc(CCNc2nc(NCC3CCN(c4nc(NCCc5ccc(N)cc5)nc(Nc5cccc(N)c5)n4)CC3)nc(Nc3cccc(N)c3)n2)cc1 [Compound 30] | 0.03 µM | 0.4 µM | IC50 [1, 6]: 0.033 µM; IC50 [1, 7]: 0.426 µM
24 | NCCCCNc1nc(NCCc2ccc(Nc3nc(NCCc4ccc(O)cc4)nc(Nc4ccccc4)n3)cc2)nc(Nc2ccccc2)n1 [Compound 16] | 55 µM | 36 µM | IC50 [2]: 13.6 µM
25 | OCCNc1nc(NCCc2ccc(Oc3nc(NCCc4ccc(O)cc4)nc(Nc4ccccc4)n3)cc2)nc(Nc2ccccc2)n1 [Compound 21] | – | – | IC50 [2]: 4.8 µM
26 | Oc1ccc(CCNc2nc(Nc3ccccc3)nc(N[C@H](COc3nc(NCCc4ccc(O)cc4)nc(Nc4ccccc4)n3)c3ccccc3)n2)cc1 [Compound 39] | 43 µM | – | –
27 | Nc1cccc(Nc2nc(N)nc(Nc3cccc(Nc4nc(N)nc(Nc5cccc(N)c5)n4)c3)n2)c1 [Compound 51] | 6 µM | 0.6 µM | –
28 | Nc1cccc(Nc2nc(NCCO)nc(Nc3cccc(CNc4nc(Nc5cccc(N)c5)nc(Nc5cccc(N)c5)n4)c3)n2)c1 [Compound 43] | 0.05 µM | 0.08 µM | –
29 | O=C(O)[C@H](Nc1nc(NCCNc2nc(NCCc3ccc(O)cc3)nc(N[C@@H](C(=O)O)c3ccccc3)n2)nc(NCCc2ccc(O)cc2)n1)c1ccccc1 [Compound 10] | 85 µM | 69 µM | –
30 | NCCCNc1nc(NCCc2ccc(Nc3nc(NCCc4ccc(O)cc4)nc(Nc4ccccc4)n3)cc2)nc(Nc2ccccc2)n1 [Compound 24] | – | – | IC50 [2]: 11.5 µM
31 | Oc1ccc(CCNc2nc(NCc3ccccc3Nc3nc(NCCc4ccc(O)cc4)nc(Nc4ccccc4)n3)nc(Nc3ccccc3)n2)cc1 [Compound 37] | 23 µM | – | –
32 | Nc1cccc(Nc2nc(NCCO)nc(Nc3ccc(CNc4nc(Nc5cccc(N)c5)nc(Nc5cccc(N)c5)n4)cc3)n2)c1 [Compound 42] | 0.05 µM | 0.05 µM | inhibition at 10 µM [3]: -1.7%; inhibition at 20 µM [3]: 0.5%; inhibition at 40 µM [3]: 30.4%; inhibition at 5 µM [3]: -3.1%
33 | Nc1cccc(Nc2nc(NCCO)nc(Nc3cccc(Nc4nc(NCCO)nc(Nc5cccc(N)c5)n4)c3)n2)c1 [Compound 49] | 0.5 µM | 0.3 µM | –
34 | Nc1ccc(CNc2nc(NCCNc3nc(NCc4ccc(N)cc4)nc(Nc4ccccc4)n3)nc(Nc3ccccc3)n2)cc1 [Compound 6] | 0.4 µM | 2.4 µM | –
35 | Oc1ccc(CCNc2nc(Nc3ccccc3)nc(Nc3cccc(Nc4nc(NCCc5ccc(O)cc5)nc(Nc5ccccc5)n4)c3)n2)cc1 [Compound 38] | – | – | IC50 [2]: 9.5 µM
36 | O=C(O)c1ccccc1Nc1nc(NCCNc2nc(NCCc3ccc(O)cc3)nc(Nc3ccccc3C(=O)O)n2)nc(NCCc2ccc(O)cc2)n1 [Compound 9] | 50 µM | – | –
37 | Nc1ccc(CCNc2nc(Nc3cccc(N)c3)nc(N3CCN(c4nc(NCCc5ccc(N)cc5)nc(Nc5cccc(N)c5)n4)CC3)n2)cc1 [Compound 29] | 0.003 µM | 0.2 µM | IC50 [1, 6]: 0.0029 µM; IC50 [1, 7]: 0.225 µM
